PubChem BioAssay AID248 (DTP/NCI, 2004)
Toxic doses and inconclusive results are not listed. Rule as the data show it: active = T/C of 150% or more; inactive = T/C below 125%.

Test system: L1210 leukemia ip in BDF1 mice, survival T/C
Experiment: NCI In Vivo Anticancer Drug Screen. Data for tumor model L1210 Leukemia (intraperitoneal) in B6D2F1 (BDF1) mice
Conditions: endpoint: mean survival time, higher = longer survival
Method in brief: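 Each compound was tested against a transplantable tumor grown in mice. The endpoint was survival, with treated animals benchmarked against vehicle controls as a simple ratio.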

[1] = dose: 100.0 mg/kg/injection, schedule: Q04DX003 (ip), vehicle: saline
[2] = dose: 400.0 mg/kg/injection, schedule: Q01DX001 (ip), vehicle: saline
[3] = dose: 200.0 mg/kg/injection, schedule: Q04DX003 (ip), vehicle: saline
[4] = dose: 400.0 mg/kg/injection, schedule: Q04DX003 (ip), vehicle: saline
[5] = dose: 100.0 mg/kg/injection, schedule: Q04DX003 (ip), vehicle: Klucel (hydroxypropylcellulose) (HPC)
[6] = dose: 200.0 mg/kg/injection, schedule: Q04DX003 (ip), vehicle: Klucel (hydroxypropylcellulose) (HPC)
[7] = dose: 400.0 mg/kg/injection, schedule: Q04DX003 (ip), vehicle: Klucel (hydroxypropylcellulose) (HPC)
[8] = dose: 100.0 mg/kg/injection, schedule: Q01DX001 (ip), vehicle: saline
[9] = dose: 200.0 mg/kg/injection, schedule: Q01DX001 (ip), vehicle: saline
[10] = dose: 100.0 mg/kg/injection, schedule: Q01DX009 (ip), vehicle: Klucel (hydroxypropylcellulose) (HPC)
[11] = dose: 200.0 mg/kg/injection, schedule: Q01DX009 (ip), vehicle: Klucel (hydroxypropylcellulose) (HPC)
[12] = dose: 400.0 mg/kg/injection, schedule: Q01DX009 (ip), vehicle: Klucel (hydroxypropylcellulose) (HPC)
[13] = dose: 100.0 mg/kg/injection, schedule: Q01DX009 (ip), vehicle: saline
[14] = dose: 200.0 mg/kg/injection, schedule: Q01DX009 (ip), vehicle: saline

Measured: T/C

CSc1ncc2n1C=CN(C(=O)c1ccc([N+](=O)[O-])cc1)C2O (centres undefined)
inactive: dose: 25.0 mg/kg/injection, schedule: Q01DX009 (ip), vehicle: saline 89 % of control | dose: 25.0 mg/kg/injection, schedule: Q04DX003 (ip), vehicle: saline 106 % of control | dose: 50.0 mg/kg/injection, schedule: Q01DX009 (ip), vehicle: saline 89 % of control | dose: 50.0 mg/kg/injection, schedule: Q04DX003 (ip), vehicle: saline 111 % of control | [1] 102 % of control

CC(C)(C)OP(O)(=S)OC(C)(C)C
inactive: dose: 100.0 mg/kg/injection, schedule: Q04DX002 (ip), vehicle: saline 94 % of control | dose: 200.0 mg/kg/injection, schedule: Q04DX002 (ip), vehicle: saline 113 % of control | dose: 400.0 mg/kg/injection, schedule: Q04DX002 (ip), vehicle: saline 110 % of control

CCOc1ccc(NC(=O)OCCCl)cc1
inactive: dose: 75.0 mg/kg/injection, schedule: Q04DX002 (ip), vehicle: Klucel (hydroxypropylcellulose) (HPC) 105 % of control | dose: 150.0 mg/kg/injection, schedule: Q04DX002 (ip), vehicle: Klucel (hydroxypropylcellulose) (HPC) 105 % of control | dose: 300.0 mg/kg/injection, schedule: Q04DX002 (ip), vehicle: Klucel (hydroxypropylcellulose) (HPC) 101 % of control

[B-][NH2+]CC[NH2+][B-]
inactive: [2] 117 % of control

OCCCCCCCCCCCO
inactive: [1] 100 % of control | [3] 93 % of control | [4] 93 % of control

Cc1ccccc1-n1nnnc1N
inactive: [1] 102 % of control | [3] 96 % of control | [4] 98 % of control

CCOC(=O)CC(c1cccc2ccccc12)c1cccc2ccc3ccccc3c12 (centres undefined)
inactive: [5] 92 % of control | [6] 86 % of control | [7] 91 % of control

CSc1c(C(N)=O)c2c(N)ncnc2n1C1OC(CO)C(O)C1O (centres undefined)
inactive: [8] 114 % of control | [9] 121 % of control | [2] 121 % of control

COc1cc(/C=N\N=C\c2ccc(F)cc2)cc(OC)c1OC
inactive: [10] 93 % of control | [11] 93 % of control | [12] 88 % of control

CCCCCCCCNP(=S)(NCCCCCCCC)NCCCCCCCC
inactive: dose: 50.0 mg/kg/injection, schedule: Q01DX001 (ip), vehicle: other 105 % of control | dose: 100.0 mg/kg/injection, schedule: Q01DX001 (ip), vehicle: other 96 % of control | dose: 200.0 mg/kg/injection, schedule: Q01DX001 (ip), vehicle: other 96 % of control | dose: 400.0 mg/kg/injection, schedule: Q01DX001 (ip), vehicle: other 94 % of control

OC1CSCSC1
inactive: dose: 100.0 mg/kg/injection, schedule: Q01DX009 (ip), vehicle: saline with Tween-80 98 % of control | dose: 100.0 mg/kg/injection, schedule: Q04DX003 (ip), vehicle: saline with Tween-80 98 % of control | dose: 200.0 mg/kg/injection, schedule: Q01DX009 (ip), vehicle: saline with Tween-80 94 % of control | dose: 200.0 mg/kg/injection, schedule: Q04DX003 (ip), vehicle: saline with Tween-80 98 % of control | dose: 400.0 mg/kg/injection, schedule: Q01DX009 (ip), vehicle: saline with Tween-80 94 % of control | dose: 400.0 mg/kg/injection, schedule: Q04DX003 (ip), vehicle: saline with Tween-80 98 % of control

O=C1NC(C2CC3C=CC2C3)Nc2ccccc21 (centres undefined)
inactive: dose: 12.5 mg/kg/injection, schedule: Q01DX009 (ip), vehicle: Klucel (hydroxypropylcellulose) (HPC) 100 % of control | dose: 12.5 mg/kg/injection, schedule: Q04DX003 (ip), vehicle: Klucel (hydroxypropylcellulose) (HPC) 111 % of control | dose: 25.0 mg/kg/injection, schedule: Q01DX009 (ip), vehicle: Klucel (hydroxypropylcellulose) (HPC) 101 % of control | dose: 25.0 mg/kg/injection, schedule: Q04DX003 (ip), vehicle: Klucel (hydroxypropylcellulose) (HPC) 103 % of control | dose: 50.0 mg/kg/injection, schedule: Q01DX009 (ip), vehicle: Klucel (hydroxypropylcellulose) (HPC) 96 % of control | dose: 50.0 mg/kg/injection, schedule: Q04DX003 (ip), vehicle: Klucel (hydroxypropylcellulose) (HPC) 103 % of control

COC1=CC(=O)C=CC1=O
inactive: dose: 1.5 mg/kg/injection, schedule: Q01DX009 (ip), vehicle: saline 90 % of control | dose: 3.0 mg/kg/injection, schedule: Q01DX009 (ip), vehicle: saline 88 % of control | dose: 6.0 mg/kg/injection, schedule: Q01DX009 (ip), vehicle: saline 90 % of control

NCCCNc1ccccc1
inactive: [13] 92 % of control | [14] 98 % of control

COC(=O)C1C2CC(C3OC23)C1C(=O)OC (centres undefined)
inactive: dose: 100.0 mg/kg/injection, schedule: Q01DX009 (ip), vehicle: other 110 % of control | dose: 200.0 mg/kg/injection, schedule: Q01DX009 (ip), vehicle: other 108 % of control | dose: 400.0 mg/kg/injection, schedule: Q01DX009 (ip), vehicle: other 93 % of control

CN(C)C(=S)SC(=S)N(C)C
inactive: dose: 25.0 mg/kg/injection, schedule: Q04DX002 (ip), vehicle: Klucel (hydroxypropylcellulose) (HPC) 106 % of control | dose: 50.0 mg/kg/injection, schedule: Q04DX002 (ip), vehicle: Klucel (hydroxypropylcellulose) (HPC) 100 % of control | dose: 100.0 mg/kg/injection, schedule: Q04DX002 (ip), vehicle: Klucel (hydroxypropylcellulose) (HPC) 89 % of control | dose: 200.0 mg/kg/injection, schedule: Q04DX002 (ip), vehicle: Klucel (hydroxypropylcellulose) (HPC) 91 % of control | dose: 400.0 mg/kg/injection, schedule: Q04DX002 (ip), vehicle: Klucel (hydroxypropylcellulose) (HPC) 98 % of control

Nc1ccc(OCCNC(=O)Nc2ccc(S(=O)(=O)F)cc2)c(Cl)c1
inactive: dose: 75.0 mg/kg/injection, schedule: Q01DX001 (ip), vehicle: other 96 % of control | dose: 150.0 mg/kg/injection, schedule: Q01DX001 (ip), vehicle: other 105 % of control | dose: 300.0 mg/kg/injection, schedule: Q01DX001 (ip), vehicle: other 98 % of control

Cc1ccc(NCc2ccccc2)cc1
inactive: dose: 100.0 mg/kg/injection, schedule: Q04DX003 (ip), vehicle: other 112 % of control | dose: 200.0 mg/kg/injection, schedule: Q04DX003 (ip), vehicle: other 92 % of control

O=S(=O)(CCCS(=O)(=O)Nc1ccccc1)Nc1ccccc1
inactive: dose: 100.0 mg/kg/injection, schedule: Q01DX001 (ip), vehicle: saline with Tween-80 103 % of control | dose: 200.0 mg/kg/injection, schedule: Q01DX001 (ip), vehicle: saline with Tween-80 97 % of control | dose: 400.0 mg/kg/injection, schedule: Q01DX001 (ip), vehicle: saline with Tween-80 90 % of control

CC12CCCCC1C(C(N)=O)C(=O)O2 (centres undefined)
inactive: [8] 105 % of control | [9] 97 % of control | [2] 105 % of control

Cc1ccc(OS(=O)(=O)c2ccc([N+](=O)[O-])cc2)cc1
inactive: [10] 97 % of control | [5] 97 % of control | [11] 96 % of control | [6] 101 % of control | [12] 95 % of control | [7] 100 % of control

CSCCC(NC(C)=O)C(=O)O (centres undefined)
inactive: [13] 99 % of control | [1] 94 % of control | [14] 86 % of control | [3] 91 % of control | dose: 400.0 mg/kg/injection, schedule: Q01DX009 (ip), vehicle: saline 96 % of control | [4] 91 % of control
